Test system: Escherichia coli
Assay: Tested for inhibition of puromycin reaction and reported as equilibrium constant derived from primary and secondary kinetic plots for the inhibition of peptide bond formation
Assay type: functional

Structure (SMILES)	Ki [µM]
NC(Cc1ccccc1)C(=O)NCC(=O)NC(CO)C(O)c1ccc([N+](=O)[O-])cc1 (stereo unspecified)	1.5
NC(Cc1ccccc1)C(=O)NC(CO)C(O)c1ccc([N+](=O)[O-])cc1 (stereo unspecified)	18
NCC(=O)NC(CO)C(O)c1ccc([N+](=O)[O-])cc1 (stereo unspecified)	5.5
O=C(N[C@H](CO)[C@H](O)c1ccc([N+](=O)[O-])cc1)C(Cl)Cl [CHLORAMPHENICOL]	0.7
NS(=O)(=O)c1ccc([C@@H](O)[C@@H](CO)NC(=O)C(Cl)Cl)cc1 [TEVENEL]	1.7
CS(=O)(=O)c1ccc([C@@H](O)[C@@H](CO)NC(=O)C(Cl)Cl)cc1 [THIAMPHENICOL]	0.4

Source: ChEMBL document CHEMBL1126895, “Aminoacyl analogs of chloramphenicol: examination of the kinetics of inhibition of peptide bond formation” (J Med Chem, 1993)
